Reference: publication PMC12136037, “Type II kinase inhibitors that target Parkinson’s disease–associated LRRK2” (Science Advances, 2025)
Values joined by “and” are separate entries in the source; they are usually repeats but may differ in a detail not shown here. Equal values may be shown once. “Also recorded” adds a separate entry of the source.

Biological target: LRRK1 (Homo sapiens, UniProt Q38SD2)
Experiment: Western blot of Rab7 phosphorylation (pS72) in 293T cells transfected with LRRK1 and GFP-Rab7
Format: cell-based
Conditions: for pRab7/Rab7/LRRK1 normalized to DMSO, Mean / pRab7/Rab7/LRRK1 normalized to DMSO: 4 h; for pRab7/Rab7/LRRK1 normalized to DMSO, Mean: 3 replicates; for pRab7/Rab7/LRRK1 normalized to DMSO: individual Western blots; for inhibition of LRRK1 kinase activity in cells: 293T cells, Rab7 phosphorylation
Protocol: For all in cell kinase assays, after 48 hours, transfected cells were treated with either DMSO (control) or the indicated inhibitors for 4 hours at 37°C and 5% CO2. Following treatments, cells were washed three times with ice cold PBS. Cells were then lysed in ice cold radioimmunoprecipitation assay (RIPA) lysis buffer [50 mM tris (pH 8.0), 150 mM NaCl, 1% Triton X-100, 0.1% SDS, 0.5% sodium deoxycholate, and 1 mM DTT] in the presence of complete mini EASYpack protease inhibitor cocktail and the PhosSTOP EASYpack phosphatase inhibitor cocktail (Roche). Resuspended and lysed cells were clarified by centrifugation at 13,000g for 15 min at 4°C. NuPAGE LDS Sample Buffer (1×) and NuPAGE Sample Reducing Agent (1×; Invitrogen) were added to the clarified supernatants, and the samples were boiled at 95°C for 5 min and spun down at 13,000g for 10 min. For Western blotting, 15 μl of sample was loaded into a NuPAGE 4 to 12% gradient bis-tris gel (Invitrogen) and run at 120 V for 75 min before transfer to polyvinylidene difluoride transfer membrane (0.45-μm pore size, Millipore) for 240 min at 80 V at 4°C. The membrane was blocked in 5% milk in 1× Tris-buffered saline (TBS) [20 mM tris (pH 8.0) and 150 mM NaCl] for 1 hour shaking at room temperature. Primary antibodies [monoclonal rabbit anti-LRRK2 (Abcam, ab133474; RRID: AB_2713963), polyclonal rabbit anti-LRRK1 (Abcam, ab228666), monoclonal rabbit anti-LRRK2 phospho-S935 (Abcam, ab133450; RRID: AB_2732035), monoclonal rabbit anti-Rab8a phospho-T72 (Abcam, ab230260; RRID: AB_2814988), monoclonal rabbit anti-Rab7 phospho-S72 (Abcam, ab302494; RRID: AB_2933985), monoclonal rabbit anti–glyceraldehyde-3-phosphate dehydrogenase (GAPDH; Cell Signalling Technology, 2118; RRID: AB_561053), and monoclonal mouse anti-GFP (Santa Cruz Biotechnology, sc-9996; RRID: AB_627695)] were diluted in 5% milk in TBS and incubated with membrane for 16 hours at 4°C. Following incubation, membranes were washed three times with 1× TBS-T [20 mM tris (pH 8.0), 150 mM NaCl, and 0.1% Tween 20] before incubation with IRDye 680RD goat anti-rabbit IgG (LI-COR, 926-68071; RRID: AB_10956166) and IRDye 800CW goat anti-mouse IgG (LI-COR, 926-32210; RRID: AB_621842) secondary antibodies in 5% milk in 1× TBS for 1 hour at room temperature. Membranes were then washed three times in 1× TBS-T before imaging on Li-COR Odyssey CLx controlled by Imaging Studio software (www.licorbio.com/image-studio, RRID:SCR_015795). Image processing and quantification were performed in ImageJ version 2.14.0 (National Institutes of Health; https://imagej.net/, RRID:SCR_003070). The signal intensity of each band was assessed using the Analyze>Gels tool. The band intensity for phosphorylated LRRK2 was measured and compared to total LRRK2 levels (run under identical conditions on a separate gel). Band intensity for phosphorylated Rab7 or Rab8a was measured and compared against total GFP-Rab7 or GFP-Rab8a (using anti-GFP antibody) and LRRK1/LRRK2 levels as appropriate. Comparative statistical analysis of phosphorylation levels was analyzed using a one-way analysis of variance (ANOVA) and corrected using Tukey’s multiple comparisons test in GraphPad Prism 10 (www.graphpad.com/, RRID:SCR_002798). (For current step-by-step protocol for LRRK transfection and Western blotting, see dx.doi.org/10.17504/protocols.io.kxygx9bozg8j/v1.)

LRRK1, sequence (Q38SD2 whole entry): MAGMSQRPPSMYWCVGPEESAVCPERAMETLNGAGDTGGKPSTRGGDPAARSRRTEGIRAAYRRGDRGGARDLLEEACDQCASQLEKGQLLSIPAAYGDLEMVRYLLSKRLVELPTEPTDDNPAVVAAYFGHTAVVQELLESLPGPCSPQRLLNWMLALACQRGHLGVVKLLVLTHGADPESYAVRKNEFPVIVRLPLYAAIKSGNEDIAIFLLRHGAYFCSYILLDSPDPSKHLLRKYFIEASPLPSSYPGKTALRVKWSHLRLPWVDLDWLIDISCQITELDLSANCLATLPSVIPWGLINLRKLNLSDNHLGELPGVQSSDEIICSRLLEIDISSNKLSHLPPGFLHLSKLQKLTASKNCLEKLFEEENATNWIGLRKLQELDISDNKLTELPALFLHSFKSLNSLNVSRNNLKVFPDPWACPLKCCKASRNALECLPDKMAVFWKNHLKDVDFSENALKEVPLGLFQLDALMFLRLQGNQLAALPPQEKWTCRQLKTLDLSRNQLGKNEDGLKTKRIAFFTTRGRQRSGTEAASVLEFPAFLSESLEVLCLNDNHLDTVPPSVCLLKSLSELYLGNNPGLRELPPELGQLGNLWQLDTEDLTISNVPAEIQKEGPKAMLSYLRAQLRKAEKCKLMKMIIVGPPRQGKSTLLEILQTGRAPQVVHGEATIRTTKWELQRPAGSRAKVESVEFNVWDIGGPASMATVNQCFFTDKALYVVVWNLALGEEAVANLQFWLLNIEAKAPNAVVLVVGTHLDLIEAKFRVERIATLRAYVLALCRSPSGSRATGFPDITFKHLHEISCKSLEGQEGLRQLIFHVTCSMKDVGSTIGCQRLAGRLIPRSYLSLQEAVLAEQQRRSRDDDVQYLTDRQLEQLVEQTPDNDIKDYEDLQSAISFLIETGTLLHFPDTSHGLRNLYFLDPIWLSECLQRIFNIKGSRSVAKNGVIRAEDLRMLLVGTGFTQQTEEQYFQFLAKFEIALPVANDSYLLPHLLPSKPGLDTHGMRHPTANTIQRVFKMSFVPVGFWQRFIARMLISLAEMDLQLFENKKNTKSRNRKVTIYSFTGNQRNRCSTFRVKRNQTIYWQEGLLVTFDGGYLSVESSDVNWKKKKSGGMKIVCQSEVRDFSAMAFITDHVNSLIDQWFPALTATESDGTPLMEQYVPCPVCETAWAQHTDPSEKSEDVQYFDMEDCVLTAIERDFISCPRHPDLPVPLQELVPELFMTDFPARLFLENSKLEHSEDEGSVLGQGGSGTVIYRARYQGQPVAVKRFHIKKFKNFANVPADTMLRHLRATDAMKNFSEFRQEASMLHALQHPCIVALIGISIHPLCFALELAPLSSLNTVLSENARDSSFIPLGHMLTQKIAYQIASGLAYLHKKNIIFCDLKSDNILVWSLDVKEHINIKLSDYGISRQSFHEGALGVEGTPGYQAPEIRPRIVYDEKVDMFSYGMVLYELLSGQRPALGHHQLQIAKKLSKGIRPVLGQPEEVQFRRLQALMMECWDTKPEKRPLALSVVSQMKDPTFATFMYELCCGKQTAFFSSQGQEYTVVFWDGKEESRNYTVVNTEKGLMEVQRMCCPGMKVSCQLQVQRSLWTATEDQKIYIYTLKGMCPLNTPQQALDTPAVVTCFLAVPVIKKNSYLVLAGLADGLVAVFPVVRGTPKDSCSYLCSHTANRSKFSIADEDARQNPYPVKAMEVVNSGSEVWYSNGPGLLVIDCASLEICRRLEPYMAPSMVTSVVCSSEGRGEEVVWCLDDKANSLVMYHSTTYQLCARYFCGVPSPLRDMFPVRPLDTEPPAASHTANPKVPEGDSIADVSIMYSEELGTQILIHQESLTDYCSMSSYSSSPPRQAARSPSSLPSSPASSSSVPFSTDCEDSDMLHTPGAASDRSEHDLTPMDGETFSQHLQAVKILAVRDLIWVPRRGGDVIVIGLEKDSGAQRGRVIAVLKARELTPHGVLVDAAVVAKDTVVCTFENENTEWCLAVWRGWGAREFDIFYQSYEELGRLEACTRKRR

Row | Structure (SMILES) | pRab7/Rab7/LRRK1 normalized to DMSO, Mean (250 nM) | pRab7/Rab7/LRRK1 normalized to DMSO (250 nM, listed as RN277) | pRab7/Rab7/LRRK1 normalized to DMSO, Mean (500 nM) | pRab7/Rab7/LRRK1 normalized to DMSO (500 nM, listed as RN277) | pRab7/Rab7/LRRK1 normalized to DMSO, Mean (1 μM) | pRab7/Rab7/LRRK1 normalized to DMSO (1 µM, listed as RN277) | pRab7/Rab7/LRRK1 normalized to DMSO, Mean (5 μM) | pRab7/Rab7/LRRK1 normalized to DMSO (5 µM, listed as RN277) | inhibition of LRRK1 kinase activity in cells (listed as RN277) | pRab7/Rab7/LRRK1 normalized to DMSO (250 nM, listed as RN341) | pRab7/Rab7/LRRK1 normalized to DMSO (500 nM, listed as RN341) | pRab7/Rab7/LRRK1 normalized to DMSO (1 µM, listed as RN341) | pRab7/Rab7/LRRK1 normalized to DMSO (5 µM, listed as RN341) | inhibition of LRRK1 kinase activity in cells (listed as RN341)
1 | Cc1ccc(-n2nc(C(C)(C)C)cc2NC(=O)Nc2cccc(-c3c[nH]c4nc(Cl)nc(N5CCOCC5)c34)c2)cc1 [Compound 30] | 0.2801 | 0.1952 and 0.2204 and 0.4248 | 0.132 | 0.134 and 0.06831 and 0.1937 | 0.07421 | 0.05675 and 0.07868 and 0.08722 | 0.02826 | 0.01168 and 0.03108 and 0.04201 | strong inhibitory effect; also recorded: potently inhibited LRRK1 in cells | – | – | – | – | –
2 | CCSc1nc(NC)c2c(-c3cccc(NC(=O)Nc4cc(C(C)(C)C)nn4-c4ccc(C)cc4)c3)c[nH]c2n1 [Compound 32] | 0.1265 | – | 0.07673 | – | 0.0594 | – | 0.03197 | – | – | 0.09263 and 0.098 and 0.1889 | 0.0375 and 0.09153 and 0.1011 | 0.03839 and 0.04963 and 0.09017 | 0.0003413 and 0.05428 and 0.04127 | strong inhibitory effect; also recorded: potently inhibited LRRK1 in cells
